# From patent US20090297492A1, “Method for Improving Cognitive Performance” (YAMAHA HATSUDOKI KABUSHIKI KAISHA, priority 2008, published 2009)
# What was measured:
# [1] = tested on: healthy males aged 50 to 69; experiment: CogHealth cognitive function test (task-switching) with administration of astaxanthin; type: in vivo, human; conditions: for Simple reaction, average reaction time: 10 subjects
# Source text: CogHealth, mentioned above, is based on task-switching that is used for evaluating higher brain functions (executive functions), such as the suppression of an action or the reorganization of information processing (A. F. Kramer et al., Nature, Vol. 400, pp. 418-419 (1999), N. J. Cepeda et al, Developmental Psychology, Vol. 37, No. 5, pp. 715-730 (2001), and S. Hsieh and L. C. Liu, Brain Res. Cogn. Brain Res., Vol. 22, No. 2, pp. 165-175 (2005)). Furthermore, fMRI analysis of brain proves that frontal lobe activity and task-switching relate to each other, and thus CogHealth is accepted as a frontal lobe function test. […] In CogHealth measurement, analysis is performed by calculating an average RT (reaction time) for each task.
# “Simple reaction” refers to a task of pressing a button when a card is flipped from face-down to face-up. “Choice reaction” refers to a task of pressing a button based on the judgment of whether the card flipped from face-down to face-up is red or black. In other words, the simple reaction and the choice reaction are tasks relating to reaction time and suppression time in the function of the human frontal lobe. The simple reaction time is the time taken to perform one reaction to one sensory stimulus, and the choice reaction time is the time necessary to recognize a type of a given stimulus, and to make a reaction depending on the type in a predetermined manner.
# “Working memory” refers to a task of pressing a button based on the judgment of whether or not a flipped card is the same as the preceding card. “Delayed recall” refers to a task of pressing a button based on the judgment of whether or not a flipped card is the same as a card that was present in the delayed recall task. “Working memory” and “delayed recall” are tasks for measuring memory, such as immediate memory and episodic memory. Working memory is a concept that includes not only information storage for a short period but also cognitive information processing. Working memory is memory used for a very short period of time in units of seconds, but the delayed recall is memory used for a period of time slightly longer than that of the working memory.
# “Divided attention” refers to a task of pressing a button when at least one of five cards moving up and down is brought into contact with an upper or lower set line, and is a task for measuring spatially divided attention ability. In other words, such divided attention is an ability not to concentrate on one point but to allocate attention to the surroundings (spatially divided attention ability or spatially allocated attention ability). The meaning of divided attention is entirely different from attention scattering.
# The astaxanthin-containing soft capsules (each capsule contains 3 mg of astaxanthin) were administered to the test subjects by ingestion of two capsules with water twice a day after eating breakfast and supper. The administration period was 12 weeks.
# In this example, in order to evaluate cognitive function, measurement using CogHealth (based on task-switching) and P300 (one of the event-related potentials of an electroencephalogram) was performed at 6 weeks and 12 weeks after starting administration.
# The average RT (reaction time) was calculated for each of the tasks “simple reaction”, “choice reaction”, “working memory”, “delayed recall”, and “divided attention”. For two memory tasks (“working memory” and “delayed recall”), analysis was performed by also calculating the average AR (correct answer ratio).
# For each index, a multiple comparison (Dunnet) was performed to obtain the P value. Regarding the result of P300, a Student's t-test was used additionally as a comparison before and after ingestion.
# [2] = tested on: healthy males aged 50 to 69; experiment: P300 event-related potential of electroencephalogram, auditory oddball paradigm; type: in vivo, human
# Source text: On the other hand, event-related potential, which is a type of electroencephalogram, is a method for measuring cognitive functions by measuring the activity of the cerebral nerves during cognitive work. In particular, the P300 (P3b) component of event-related potential has been used to estimate the mental work load (A. F. Kramer and T. Weber, Handbook of psychophysiology (2nd Edition), J. T. Cacioppo et al. (Eds.), New York, Cambridge University Press, (2000) pp. 794-814). In a state where two tasks are simultaneously executed, when one task is made difficult (or the priority of one task is increased), the execution performance of the other task is lowered. Based on a study using such a dual-task method, the P300 amplitude is considered to clearly reflect the cognitive functions in the perception-central nerve level that caused the amplitude (E. Donchin et al., Psychophysiology: Systems, processes, and applications, M. G. H. Coles et al. (Eds.), New York, Guilford Press, (1986) pp. 702-718). That is to say, the P300 amplitude reflects the degree of attention, the degree of concentration, and the degree of cognitive load, for a task of recognizing surroundings.
# In a P300 test, for example, an auditory oddball paradigm can be employed. […] Then, a change in the obtained amplitude before and after ingestion is measured based on the Grand Average. […]
# In the electroencephalogram, an auditory oddball paradigm was used in which two types of sounds consisting of a high-pitched sound having a frequency of 2 KHz and a low-pitched sound having a frequency of 1 KHz were emitted from a headphone, and the test subjects were instructed to press a button as quickly and accurately as possible at the moment when the test subjects heard the high-pitched sound. […] The evoked electroencephalograms were measured with the frontal polar (Fpz) electrode as ground, and two linked electrode attached to the left and right earlobes as reference. […]
# [3] = After 6 weeks, two 3 mg capsules twice a day, oral, Mean ± SD
# [4] = After 12 weeks, two 3 mg capsules twice a day, oral, Mean ± SD
compound,measurement,setting,value
CC1=C(/C=C/C(C)=C/C=C/C(C)=C/C=C/C=C(C)/C=C/C=C(C)/C=C/C2=C(C)C(=O)[C@@H](O)CC2(C)C)C(C)(C)C[C@H](O)C1=O [astaxanthin],"Choice reaction, average reaction time",[1]; [3],480.63 ± 39.87 ms
same,Delayed recall (Correct answer rate: %),[1]; [3],71.19 ± 5.98%
same,"Delayed recall, average reaction time",[1]; [3],975.40 ± 190.75 ms
same,"Divided attention, average reaction time",[1]; [3],419.52 ± 59.32 ms
same,"Working memory, average reaction time",[1]; [3],732.95 ± 174.83 ms
same,"Simple reaction, average reaction time",[1]; [3],303.31 ± 33.80 ms
same,"Choice reaction, average reaction time",[1]; [4],463.63 ± 26.49 ms
same,Delayed recall (Correct answer rate: %),[1]; [4],70.71 ± 8.91%
same,"Delayed recall, average reaction time",[1]; [4],916.77 ± 151.04 ms
same,"Divided attention, average reaction time",[1]; [4],412.07 ± 51.97 ms
same,Working memory (Correct answer rate: %),[1]; [4],96.30 ± 3.94%
same,"Working memory, average reaction time",[1]; [4],654.83 ± 128.42 ms
same,"Simple reaction, average reaction time",[1]; [4],281.76 ± 33.56 ms
same,Change in reaction time for divided attention,"[1]; before ingestion versus 6 weeks after ingestion, P=0.034",significant reduction
same,"Change in reaction time, all tasks","[1]; before ingestion versus 12 weeks after ingestion, P=0.013 to 0.034",significantly reduced
same,"Effect on agility, judging ability and spatially allocated attention ability",[1]; overall conclusion from CogHealth,an effect of improving agility
same,"Change in reaction time, all tasks of CogHealth",[1]; versus before ingestion,a reduction in reaction time was confirmed
same,"Change in correct answer ratio, working memory","[1]; versus before ingestion, P=0.045",significant increase
same,"Change in correct answer ratio, delayed recall","[1]; versus before ingestion, P=0.991",no significant change
same,P300 Amplitude,"[2]; After 12 weeks, at Fz, two 3 mg capsules twice a day, oral, Mean ± SD",−10.54 ± 3.39 μV
same,Change in P300 amplitude at Fz,"[2]; multiple comparisons, before/after comparison P=0.057",no significant change
same,Effect on concentration on the recognition of surroundings,[2]; overall conclusion from P300,an effect of improving concentration on the recognition of surroundings
